Publication PMC4494771, “Synthesis, structure, and biological activity of novel heterocyclic sulfonyl-carboximidamides” (Monatshefte Fur Chemie, 2013)
Values after ≈ are worked out from the molar mass of the structure shown. Like-named read-outs stand apart in the source and are kept apart here.

Assays:
[1] = tested on: Mycobacterium tuberculosis H37Rv strain; assay: Tuberculostatic activity, classical test-tube method of successive dilution; assay type: cell-based
M. tuberculosis sp. 192 = assay: as above; assay type: cell-based; details: Mycobacterium tuberculosis; sp. 192, fully sensitive wild strain
[2] = tested on: Mycobacterium tuberculosis H37Rv, sp. 210 and sp. 192; assay: Tuberculostatic activity, three tested strains together; assay type: cell-based
UO-31 = assay: NCI-60 DTP human tumor cell line screening; assay type: cell-based; details: for inhibition at 10 µM: Homo sapiens
P. acnes ATCC 11827 = assay: Antibacterial activity, MIC in broth serial dilution; details: for MIC: Cutibacterium acnes, ATCC11827, 72 h, read-out: MIC P. acnes, P. acnes ATCC 11827, 72 h anaerobic
Experimental: Compounds were tested at serial dilutions in bacterial broth starting at 100 μg/cm^3 (final concentration). P. acnes (ATCC 11827, lot 419697) was grown in thioglycollate nutrient broth (Hardy Diagnostics K29) for 72 h at 33 °C, then inoculated at the density equivalent to 0.5 McFarland standard and incubated with the test materials for another 72 h in an anaerobic environment. […] At the end of the incubation the MIC was assessed optically as the lowest concentration of a test material which caused no bacteria growth [34]. This optical assessment was further confirmed by measuring the absorbance at 655 nm with the BioRad 3550-UV microplate reader. The MIC was defined as at least 50 % inhibition of the increase of OD.

[3] = tested on: panel of 60 human tumor cell lines; assay: NCI-60 DTP human tumor cell line screening, whole panel; details: 10 μM, mean of growth percent for all tested cell lines
HOP-92 = assay: NCI-60 DTP human tumor cell line screening; assay type: cell-based; details: Homo sapiens; one dose 10 μM, Non-small cell lung cancer HOP-92; read-out: Growth inhibition ΔGI
NCI-H522 = assay: NCI-60 DTP human tumor cell line screening; assay type: cell-based; details: Homo sapiens; one dose 10 μM, Non-small cell lung cancer NCI-H522; read-out: Growth inhibition ΔGI
SNB-75 = assay: NCI-60 DTP human tumor cell line screening; assay type: cell-based; details: Homo sapiens; one dose 10 μM, CNS cancer SNB-75; read-out: Growth inhibition ΔGI
[4] = tested on: neonatal human dermal fibroblasts (ATCC PCS-201-010); assay: Cytotoxic activity, fibroblast proliferation (sulforhodamine B); assay type: cell-based; details: for cytotoxic activity on fibroblast proliferation: 96 h, 6.25–100 μg/cm^3
Experimental: Passage for normal neonatal human dermal fibroblasts (ATCC PCS-201-010, lot 58243223) were grown in DMEM with 5 % calf serum (Hyclone). For the experiment, cells were plated in DMEM/5 % serum at 2,000 cells/well in 96 well plates (plate 598) and were exposed to test materials for 96 h. MAP and bFGF were used as the positive controls and water, 1, 0.5, and 0.25 % DMSO were used as the negative controls. Plate growth was stopped and cells were stained with a sulforhodamine B dye. The dye was then dissolved and a colorimetric signal proportional to total cell/protein count was quantified with the BioRad microplate spectrophotometer 3550-UV at 570 nm with background subtraction at 660 nm and analyzed with Microplate Manager v.2 software for Macintosh (BioRad). Error bars represent standard errors of the mean (SEM). P values representing statistical significance were calculated using the t test.

MALME-3M = assay: NCI-60 DTP human tumor cell line screening; assay type: cell-based; details: Homo sapiens; one dose 10 μM, Melanoma MALME-3M; read-out: Growth inhibition ΔGI
A498 = assay: NCI-60 DTP human tumor cell line screening; assay type: cell-based; details: Homo sapiens; one dose 10 μM, Renal cancer A498; read-out: Growth inhibition ΔGI
[5] = UO-31, one dose 10 μM, Renal cancer UO-31, read-out: Growth inhibition ΔGI

Row | SMILES | MIC [1] | MIC (M. tuberculosis sp. 192) | MIC (P. acnes ATCC 11827) | Growth percent mean values (MG_MID) [3] | melting point | also measured
1 | NNC(=O)c1ccncc1 [INH, isoniazid, reference compound] | 0.5 µg/mL (≈ 3.65 µM) | 0.5 µg/mL (≈ 3.65 µM) |  |  |  | MIC [2]: 0.5 to 1 µg/mL (≈ 3.65 to 7.29 µM)
2 | NC(=NS(=O)(=O)c1ccccc1Cl)c1ncccn1 [Compound 7, N′-[(2-Chlorophenyl)sulfonyl]pyrimidine-2-carboximidamide] | 50 µg/mL (≈ 168 µM) | 50 µg/mL (≈ 168 µM) | > 100 µg/mL | 103.0% |  | inhibition at 10 µM (UO-31; [5]): 19.4%
3 | NC(=NS(=O)(=O)c1cnccc1Cl)c1cncc(Cl)n1 [Compound 12, 6-Chloro-N′-[(4-chloropyridin-3-yl)sulfonyl]pyrazine-2-carboximidamide] |  |  | > 100 µg/mL | 97.8% |  | inhibition at 10 µM (HOP-92): 25.9%; inhibition at 10 µM (NCI-H522): 143%
4 | NC(=NS(=O)(=O)c1cnccc1Cl)c1cnccn1 [Compound 10, N′-[(4-Chloropyridin-3-yl)sulfonyl]pyrazine-2-carboximidamide] | 50 µg/mL (≈ 168 µM) | 25 µg/mL (≈ 84 µM) | > 100 µg/mL | 101.9% |  | inhibition at 10 µM (SNB-75): 19.3%
5 | NC(=NS(=O)(=O)c1cnccc1Cl)c1ccccn1 [Compound 2, N′-[(4-Chloropyridin-3-yl)sulfonyl]-2-pyridinecarboximidamide] | 50 µg/mL (≈ 168 µM) | 50 µg/mL (≈ 168 µM) |  | 98.2% |  | cytotoxic activity on fibroblast proliferation [4]: no cytotoxic activity; inhibition at 10 µM (UO-31; UO-31, read-out: Growth inhibition ΔGI): 20.4%
6 | NC(=NS(=O)(=O)c1ccccc1Cl)c1cncc(Cl)n1 [Compound 11, 6-Chloro-N′-(2-chlorophenylsulfonyl)pyrazine-2-carboximidamide] |  |  | > 100 µg/mL | 102.1% |  | inhibition at 10 µM (MALME-3M): 22.6%; inhibition at 10 µM (UO-31; [5]): 19.4 to 21.1%; Growth inhibition ΔGI (UO-31; one dose 10 μM, Renal cancer UO-31): 22.6%
7 | NC(=NS(=O)(=O)c1ccccc1Cl)c1cnccn1 [Compound 9, N′-[(2-Chlorophenyl)sulfonyl]pyrazine-2-carboximidamide] |  |  | > 100 µg/mL |  | 173 to 174 °C | 
8 | NC(=NS(=O)(=O)c1ccccc1Cl)c1ccncc1 [Compound 5, N′-[(2-Chlorophenyl)sulfonyl]-4-pyridinecarboximidamide] |  |  | > 100 µg/mL |  | 182 to 185 °C | 
9 | NC(=NS(=O)(=O)c1cnccc1Cl)c1ncccn1 [Compound 8, N′-[(4-Chloropyridin-3-yl)sulfonyl]pyrimidine-2-carboximidamide] | 50 µg/mL (≈ 168 µM) | 50 µg/mL (≈ 168 µM) | > 100 µg/mL |  | 162 to 163 °C | 
10 | COc1cncc(C(N)=NS(=O)(=O)c2cnccc2Cl)n1 [Compound 14, N′-[(4-Chloropyridin-3-yl)sulfonyl]-6-methoxypyrazine-2-carboximidamide] |  |  | > 100 µg/mL |  | 265 to 270 °C (dec.) | 
11 | COc1cncc(C(N)=NS(=O)(=O)c2ccccc2Cl)n1 [Compound 13, N′-(2-Chlorophenylsulfonyl)-6-methoxypyrazine-2-carboximidamide] |  |  | > 100 µg/mL |  | 227 to 230 °C | 
12 | NC(=NS(=O)(=O)c1cnccc1Cl)c1ccc2ccccc2n1 [Compound 16, N′-[(4-Chloropyridin-3-yl)sulfonyl]quinoline-2-carboximidamide] |  |  | > 100 µg/mL |  |  | 
13 | NC(=NS(=O)(=O)c1cnccc1Cl)c1ccncc1 [Compound 6, N′-[(4-Chloropyridin-3-yl)sulfonyl]-4-pyridinecarboximidamide] |  |  | > 100 µg/mL |  | 215 to 218 °C | 
14 | N/C(=N\S(=O)(=O)c1cnccc1Cl)c1cccnc1 [Compound 4, (Z)-N′-[(4-Chloropyridin-3-yl)sulfonyl]-3-pyridinecarboximidamide] |  |  | > 100 µg/mL | 104.8% |  | inhibition at 10 µM (MALME-3M): 20%; inhibition at 10 µM (A498): 24.1%
15 | NC(=NS(=O)(=O)c1ccccc1Cl)c1ccccn1 [Compound 1, N′-[(2-Chlorophenyl)sulfonyl]-2-pyridinecarboximidamide] |  |  | 12.5 to 50 µg/mL (≈ 42.3 to 169 µM) |  | 140 to 142 °C | growth inhibitory activity ([4]; 100 μg/cm^3): 88%; cytotoxic effect ([4]; 6.25–12.5 μg/cm^3): no cytotoxic effect was evident; cytotoxic activity on fibroblast proliferation [4]: weak inhibitory activity; MIC P. acnes (P. acnes ATCC 11827; P. acnes ATCC 11827, 72 h anaerobic): 25 µg/mL (≈ 84.5 µM)
16 | N/C(=N\S(=O)(=O)c1ccccc1Cl)c1cccnc1 [Compound 3, (Z)-N′-[(2-Chlorophenyl)sulfonyl]-3-pyridinecarboximidamide] |  |  | > 100 µg/mL |  | 188 to 190 °C | 
